What was measured:
[1] = biological target: T1, Protein Kinase A (Bos taurus, UniProt P00517); assay: Kinase Selectivity Assay Protein Kinase A; assay type: biochemical, bovine; conditions: Kinase Selectivity, Tables 2a-2k; read-out: PKA IC50
T1 construct: purified from bovine heart; purchased Upstate Biotech 14-114; host or cells: bovine heart
In short: (§1)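 Radiometric Flashplate format: ^33P-γ-ATP transfer to immobilized biotinylated peptide, 1 h, 30° C, 1% DMSO final, enzyme in 50 mM Tris-HCl pH=8.0 + 0.1% BSA. Duplicate 8-point dilution, 100 uM down to 10 pM. IC50 from % inhibition of plate max signal versus log conc.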

[2] = biological target: T2, Casein Kinase 1 (CK1 delta isoform) (Rattus norvegicus, UniProt Q06486); assay: Kinase Selectivity Assay Casein Kinase 1; assay type: biochemical; conditions: Tables 2a-2k, read-out: Caseine Kinase 1 IC50
T2 construct: a truncation at amino acid 318 of the C-terminal portion of the rat CK1 delta isoform; purchased New England Biolabs 6030; host or cells: E. coli
T2 sequence (Q06486 1-317): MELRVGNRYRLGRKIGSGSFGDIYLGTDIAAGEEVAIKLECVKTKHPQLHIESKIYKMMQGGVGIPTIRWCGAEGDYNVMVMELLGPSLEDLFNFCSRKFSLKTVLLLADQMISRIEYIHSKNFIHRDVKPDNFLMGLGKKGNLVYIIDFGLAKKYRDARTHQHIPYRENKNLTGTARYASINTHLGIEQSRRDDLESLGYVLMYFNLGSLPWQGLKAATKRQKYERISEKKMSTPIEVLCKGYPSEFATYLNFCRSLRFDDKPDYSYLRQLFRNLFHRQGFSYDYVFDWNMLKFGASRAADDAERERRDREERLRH
In short: as §1

[3] = biological target: T3, Calmodulin Kinase (calmodulin-dependent protein kinase 2) (Rattus norvegicus, UniProt P11275); assay: Kinase Selectivity Assay Calmodulin Kinase; assay type: biochemical; conditions: Kinase Selectivity, Tables 2a-2k; read-out: Calmodulin Kinase 2 IC50
T3 construct: a truncated version of the alpha subunit of the rat protein; purchased New England Biolabs 6060; host or cells: insect cells
In short: as §1

[4] = biological target: T4, MAP Kinase (ERK-2 isoform) (Rattus norvegicus, UniProt P63086); assay: Kinase Selectivity Assay MAP Kinase (ERK-2); assay type: biochemical; conditions: Kinase Selectivity, Tables 2a-2k; read-out: ERK 2 IC50
T4 construct: polyhistidine (N); host or cells: E. coli
T4 sequence (P63086 whole entry, canonical isoform): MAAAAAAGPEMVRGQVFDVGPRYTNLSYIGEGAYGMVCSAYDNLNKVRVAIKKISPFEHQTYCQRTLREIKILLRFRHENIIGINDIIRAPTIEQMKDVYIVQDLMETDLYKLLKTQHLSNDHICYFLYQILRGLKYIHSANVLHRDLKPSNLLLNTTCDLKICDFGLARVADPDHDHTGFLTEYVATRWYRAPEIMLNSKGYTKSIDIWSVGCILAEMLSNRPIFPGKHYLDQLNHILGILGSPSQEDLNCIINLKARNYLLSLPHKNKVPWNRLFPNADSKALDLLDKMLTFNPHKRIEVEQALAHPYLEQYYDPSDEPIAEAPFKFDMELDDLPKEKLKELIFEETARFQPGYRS
In short: as §1

[5] = biological target: T5, PDGF-R (platelet derived growth factor receptor) beta subunit kinase domain (Homo sapiens, UniProt P09619); assay: Kinase Selectivity Assay PDGF-R; assay type: biochemical; conditions: Kinase Selectivity, Tables 2a-2k; read-out: PDGF-R kinase IC50
T5 construct: nucleotides 1874-3507 of the human PDGF-R beta subunit kinase domain; polyhistidine (N)
T5 sequence (P09619 564-1106): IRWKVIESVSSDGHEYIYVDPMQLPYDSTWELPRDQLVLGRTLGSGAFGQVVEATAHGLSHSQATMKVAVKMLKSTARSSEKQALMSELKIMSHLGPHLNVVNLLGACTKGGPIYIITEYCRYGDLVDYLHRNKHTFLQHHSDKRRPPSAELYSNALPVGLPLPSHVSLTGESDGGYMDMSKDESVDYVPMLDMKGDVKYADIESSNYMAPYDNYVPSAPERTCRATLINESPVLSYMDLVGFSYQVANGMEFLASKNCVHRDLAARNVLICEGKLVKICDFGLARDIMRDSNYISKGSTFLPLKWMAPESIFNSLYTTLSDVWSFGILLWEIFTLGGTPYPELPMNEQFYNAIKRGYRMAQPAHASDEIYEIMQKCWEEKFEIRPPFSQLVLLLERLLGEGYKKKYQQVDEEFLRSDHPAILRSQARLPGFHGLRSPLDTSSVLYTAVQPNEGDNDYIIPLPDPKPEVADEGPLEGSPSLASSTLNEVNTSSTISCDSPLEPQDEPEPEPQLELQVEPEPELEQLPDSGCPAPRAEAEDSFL
In short: as §1

[6] = tested on: HeLa cervical adenocarcinoma; assay: Inhibition of Cell Proliferation (14C-thymidine incorporation), HeLa; assay type: cell-based; conditions: Homo sapiens, HeLa cell line
In short: (§2)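 Scintillation counting of methyl 14C-thymidine taken up into new DNA gives the read-out. Cells (3000-8000/well) had 24 h attachment, 24 h compound treatment, then 24 h more with drug plus 0.2 uCi/well label, all at 37° C under 5% CO2.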

[7] = tested on: HCT-116 colon carcinoma; assay: Inhibition of Cell Proliferation (14C-thymidine incorporation), HCT-116; assay type: cell-based; conditions: Homo sapiens, HCT-116 cell line
In short: as §2

SMILES | IC50 [1] [µM] | IC50 [2] [µM] | IC50 [3] [µM] | IC50 [4] [µM] | IC50 [5] [µM] | IC50 [6] [nM] | IC50 [7] [nM]
Cc1cc(C)c(C(=O)n2nc(Nc3ccc(S(=O)(=O)Nc4ccccn4)cc3)nc2N)s1 [Cpd 120] | > 100 | > 10 | > 100 | > 100 | 0.822 | 978 | 334
Nc1nc(Nc2ccc(N3CCCS3(=O)=O)cc2)nn1C(=O)c1c(F)cccc1F [Cpd 117] | > 100 | 13.5 | > 100 | > 100 | > 100 | 2060 | 1120
Nc1nc(Nc2ccc(S(N)(=O)=O)cc2)nn1C(=O)C1CCCC1 [Cpd 38, 4-[[5-amino-1-(cyclopentylcarbonyl)-1H-1,2,4-triazol-3-yl]amino]-benzenesulfonamide] | > 100 | 6.1 | > 100 | 24.2 | 6.37 | 4560 | 2270
Cc1ccsc1C(=O)n1nc(Nc2ccc(N3CCCS3(=O)=O)cc2)nc1N [Cpd 116, N^3-[4-(1,1-dioxido-2-isothiazolidinyl)phenyl]-1-[(3-methyl-2-thienyl)carbonyl]-1H-1,2,4-triazole-3,5-diamine] | > 100 | > 1 | > 100 | > 100 | 0.302 | 380 | 349
Nc1nc(Nc2ccc(S(N)(=O)=O)cc2)nn1C(=O)C1CCCCC1 [Cpd 39, 4-[[5-amino-1-(cyclohexylcarbonyl)-1H-1,2,4-triazol-3-yl]amino]-benzenesulfonamide] | > 100 | 4.1 | > 100 | 13.2 | 3.98 | 270 | 1410
Cc1ccc(F)c(C(=O)n2nc(Nc3ccc(S(N)(=O)=O)cc3)nc2N)c1Cl [Cpd 69, 4-[[5-amino-1-(2-chloro-6-fluoro-3-methylbenzoyl)-1H-1,2,4-triazol-3-yl]amino]-benzenesulfonamide] | 46.6 | 16.6 | > 100 | 12.5 | 0.1 | 218 | 1720
Nc1nc(Nc2ccc(S(=O)(=O)N3CCCCC3)cc2)nn1C(=O)c1cccs1 [Cpd 23, N^3-[4-(1-piperidinylsulfonyl)phenyl]-1-(2-thienylcarbonyl)-1H-1,2,4-triazole-3,5-diamine] | > 100 | 0.113 | 10.5 | 1.62 | 0.629 | 1180 | 376
CCc1ccc(C(=O)n2nc(Nc3ccc(S(N)(=O)=O)cc3)nc2N)s1 [Cpd 32, 4-[[5-amino-1-[(5-ethyl-2-thienyl)carbonyl]-1H-1,2,4-triazol-3-yl]amino]-benzenesulfonamide] | > 100 | 0.181 | > 100 | 0.563 | 0.074 | 71 | 26
CCc1ccc(C(=O)n2nc(Nc3ccc(S(=O)(=O)NCCN(C)C)cc3)nc2N)s1 [Cpd 103, 4-[[5-amino-1-[(5-ethyl-2-thienyl)carbonyl]-1H-1,2,4-triazol-3-yl]amino]-N-[2-(dimethylamino)ethyl]-benzenesulfonamide] | > 100 | 0.322 | > 100 | 0.845 | 0.702 | 62 | 75
Cc1ccc(F)c(C(=O)n2nc(N)nc2Nc2ccc(S(N)(=O)=O)cc2)c1F [Cpd 123, 4-[[3-amino-1-(2,6-difluoro-3-methylbenzoyl)-1H-1,2,4-triazol-5-yl]amino]-benzenesulfonamide] | > 100 | > 100 | > 100 | > 100 | > 100 | 28500 | 4140
CNS(=O)(=O)c1ccc(Nc2nc(N)n(C(=O)c3c(F)ccc(C)c3F)n2)cc1 [Cpd 81, 4-[[5-amino-1-(2,6-difluoro-3-methylbenzoyl)-1H-1,2,4-triazol-3-yl]amino]-N-methyl-benzenesulfonamide] | > 100 | 6.96 | > 100 | 11.7 | 7.76 | 189 | 778
Nc1nc(Nc2ccc(S(=O)(=O)Nc3ccccn3)cc2)nn1C(=O)c1c(F)cccc1F [Cpd 118, 4-[[5-amino-1-(2,6-difluorobenzoyl)-1H-1,2,4-triazol-3-yl]amino]-N-(2-pyridinyl)-benzenesulfonamide] | > 100 | > 100 | > 100 | > 100 | > 100 | 1940 | 1170
Nc1nc(Nc2ccc(S(N)(=O)=O)cc2)nn1C(=O)c1c(F)cccc1Cl [Cpd 70, 4-[[5-amino-1-(2-chloro-6-fluorobenzoyl)-1H-1,2,4-triazol-3-yl]amino]-benzenesulfonamide] | 34.2 | 35.7 | > 100 | 19.4 | 16.2 | 196 | 1580
Nc1nc(Nc2ccc(S(N)(=O)=O)cc2)nn1C(=O)c1cccs1 [Cpd 14, 4-[[5-amino-1-(2-thienylcarbonyl)-1H-1,2,4-triazol-3-yl]amino]-benzenesulfonamide] | 5.43 | 0.348 | 60.4 | 2.14 | 0.189 | 550 | 1940
Cc1ccccc1C(=O)n1nc(Nc2ccc(S(N)(=O)=O)cc2)nc1N [Cpd 57, 4-[[5-amino-1-(2-methylbenzoyl)-1H-1,2,4-triazol-3-yl]amino]-benzenesulfonamide] | > 100 | 14 | > 100 | > 100 | 4.19 | 339 | 95
